From patent US20210138274A1, “ACCUMULATIVE BORON 10 MEDICINE FOR BORON NEUTRON CAPTURE THERAPY FOR SELECTIVELY OR LOCALLY TARGETING TUMOR TISSUES IN SHORT TIME” (HIROSAKI UNIVERSITY, priority 2018, published 2021)
“Also recorded” adds a separate entry of the source. Where no end group is shown, it is not given here. Side-chain parts run from the residue outwards. EMCS = N-(6-maleimidocaproyloxy)succinimide crosslinker

Columns and labels:
[1] = tested on: tumor-bearing mice seeded on the thigh with a murine bladder cancer cell MBT2; conditions: mouse, in vivo
Experimental: Tumor accumulation ability was tested in tumor-bearing mice (7 mm in tumor diameter) seeded on the thigh with a murine bladder cancer cell MBT2, with respect to IF7-^10BPA synthesized in Synthesis Example 1 above and IF7-^10BSH synthesized in Synthesis Example 2 above. 100 μL (175 μg) of IF7-^10BPA or IF7-^10BSH adjusted to 7 mg/kg was administered to the tail vein of the tumor-bearing mice. ^10B levels (ppm) in the organs of the tumor-bearing mice were measured 5, 10, and 20 minutes after the tail-vein administration by the PGA-method.
^10B levels in the respective organs of the tumor-bearing mice were measured in the same manner as in Example 1, except that the measurement was performed 40 minutes after the administration in addition to 5, 10 and 20 minutes, the number of n in the respective data was 3 or more, and the measurement results were indicated in violin plots.
^10B levels in the respective organs of the tumor-bearing mice were measured in the same manner as in Example 3, except that instead of IF7-^10BPA, [10B]boronophenylalanine (^10BPA) in the same concentration was administered. The results are indicated in violin plots in FIG. 3B.
^10B levels in the respective organs of the tumor-bearing mice were measured in the same manner as in Comparative Example 2, except that the concentration of ^10BPA was changed from 7 mg/kg to 100 mg/kg. […]

[2] = tested on: tumor-bearing mice seeded in the thigh with murine bladder cancer cell strain MBT2; test: Neutron irradiation test (tumor volume, hot group vs cold group); format: in vivo; conditions: 7 mg/kg tail vein, neutron irradiation 40 minutes after administration; for effect of reducing the tumor volume, hot group versus cold group: tumor volumes (mm^3) measured for 21 days, FIGS. 5, 6
Experimental: IF7-^10BPA was administered to the tail vein of tumor-bearing mice seeded in the thigh with murine bladder cancer cell strain MBT2 at a dosage amount of 7 mg/kg. Thereafter, tumor volumes (mm^3) thereof were measured for 21 days, with respect to a group (hot group), which was irradiated 40 minutes after the tail-vein administration with neutrons for 30 minutes under the following conditions and a group (cold group), which was not irradiated. In the drawing, * represents p<0.05.
(1) Neutron fluence (cm^−2·s^−1) 2.1E^+12 (2.1×10^12) to 4.6E^+12 (2) Physical dose (Gy) Thermal neutrons: 2.8E^−1 to 6.1E^−1 Epithermal neutrons: 3.0E^−2 to 6.5E^−2 Fast neutrons: 2.1E^−1 to 4.6E^−1 Gamma rays: 2.1E^−1 to 4.6E^−1 Total: 8.9E^−1 to 1.5E^0
Administration was performed in the same manner as in Example 5, except that IF7-^10BSH was administered instead of IF7-^10BPA. Thereafter, tumor volumes (mm^3) were measured for 21 days with respect to the hot group which was irradiated with neutrons 40 minutes after the administration and the cold group which was not irradiated.
IF7-^10BPA was administered to tail vein of the tumor-bearing mice seeded with murine bladder cancer cell strain MBT2 at a dosage amount of 7 mg/kg. Thereafter, tumor volumes (mm^3) were measured for 21 days with respect to a hot group which was irradiated with neutrons 40 minutes after the tail-vein administration and a cold group which was not irradiated.
The administration was performed in the same manner as in Example 7, except that 1BPA was administered instead of IF7-^10BPA, tumor volumes (mm^3) were measured for 21 days with respect to the hot group irradiated 40 minutes after the administration with neutrons and the cold group which was not irradiated.

[3] = tested on: tumor-bearing mice (murine bladder cancer cell MBT2); test: Tumor accumulation ability test, Comparative Example 1 (^10B levels in organs, ICP-AES method); format: in vivo; conditions: FIG. 2
Experimental: Additionally, as Comparative Example 1, a tumor accumulation ability test was similarly performed using R-D-fructopyranose, 2′ position of which is esterified with [10B]boronophenylalanine group represented by the formula (a) (hereinafter, simply referred to as “^10BPA-fructose”). 100 μL (2,000 μg) of ^10BPA-fructose whose dosage amount was increased to 100 mg/kg was administered to the tail vein of tumor-bearing mice. ^10B levels (ppm) in the respective organs of the tumor-bearing mice were measured 20, 40, and 60 minutes after the tail-vein administration by ICP-AES method. FIG. 2 is a drawing indicating ^10B levels (ppm) in the organs of the tumor-bearing mice at 20, 40, and 60 minutes after tail-vein administration of 100 μL (2,000 μg) of ^10BPA-fructose.

Substance	^10B level in the tumor compared with ^10BPA 100 mg/kg (Comparative Example 3) [1]	effect of reducing the tumor volume, hot group IF7-^10BPA (Example 7) versus hot group ^10BPA (Comparative Example 5) ([2]; 21 days, FIGS. 6A, 6B)	effect of reducing the tumor volume, hot group versus cold group [2]	accumulation of ^10B in the tumor tissue ([3]; 100 mg/kg (100 μL, 2,000 μg) tail vein, 20, 40, and 60 minutes after the administration)	discrimination of the tumor tissue from the other organs (^10B levels) ([3]; 100 mg/kg tail vein, 20, 40, and 60 minutes)
IF7-^10BPA: peptide IFLLWQRCRR (SEQ ID NO: 2) crosslinked with EMCS between cysteine thiol and terminal amino group of a ^10B boronophenylalanine compound (IFLLWQRC([EMCS-(10B)boronophenylalanine])RR)	not inferior	effect of reducing the tumor volume was greater	effect of reducing the tumor volume was pronounced; also recorded: more pronounced in the hot group		
IF7-^10BSH: peptide IFLLWQRKRR (SEQ ID NO: 3) crosslinked with EMCS between lysine amino group and thiol group of sodium [10B]borocaptate (IFLLWQRK([EMCS-sodium (10B)borocaptate])RR)			effect of reducing the tumor volume was pronounced		
R-D-fructopyranose, 2′ position of which is esterified with [10B]boronophenylalanine group represented by the formula (a) [^10BPA-fructose]				did not accumulate at all in the tumor tissue	did not significantly discriminate the tumor tissue from the other organs
